# Experimental data taken from patent US10555536B2, “Crop fortification, nutrition and crop protection composition” (priority 2017, dated 2020).
# Test system: Groundnut
# Test: Field trial on groundnut, protein content of seeds
# Design: species or system Groundnut GG-2 variety
# Conditions: in vivo
# Description: Field Trial Study of Treatments with Spirulina Compositions on Groundnut by Soil Drenching. Trials were laid in Ishvarpura (Idar) village, Dist.-Sabarkantha, Gujarat, India, to evaluate various compositions for treatment of Groundnut GG-2 variety. The plot size was 3828 m2. All the recommended agronomic practices were followed. All the treatments were applied by Soil drenching. Also, no urea or any other chemical fertilizer was applied in the trial and in the previous crop. Thus, the parts where compositions of the present invention were applied were free of chemical nutrient for over a year.
structure (smiles),measurement,value
NC(N)=O [Urea],Protein content of Groundnut Seeds %,48.884%
